Values of other authors as cited in PMC2225439, “Amyloid as a Depot for the Formulation of Long-Acting Drugs” (PLoS Biology, 2008).
Where a SMILES comes first, the peptide text is derived from it. [ ]: non-standard residue; d: D form. The star is where a group is joined. dPhe(4-NHCONH2) = NC(=O)Nc1ccc(C[C@@H](N)C(=O)O)cc1; Dihydroorotyl(S) = O=C1C[C@@H](C(=O)*)NC(=O)N1; dPhe(4-Cl) = N[C@H](Cc1ccc(Cl)cc1)C(=O)O; Phe(4-NH2) = Nc1ccc(C[C@H](N)C(=O)O)cc1; d2Nal = N[C@H](Cc1ccc2ccccc2c1)C(=O)O; Lys(iPr) = CC(C)NCCCC[C@H](N)C(=O)O; d3Pal = N[C@H](Cc1cccnc1)C(=O)O

Test system: histamine release
Details: cited from earlier work

SMILES: CC(=O)N[C@H](Cc1ccc2ccccc2c1)C(=O)N[C@H](Cc1ccc(Cl)cc1)C(=O)N[C@H](Cc1cccnc1)C(=O)N[C@@H](CO)C(=O)N[C@@H](Cc1ccc(NC(=O)[C@@H]2CC(=O)NC(=O)N2)cc1)C(=O)N[C@H](Cc1ccc(NC(N)=O)cc1)C(=O)N[C@@H](CC(C)C)C(=O)N[C@@H](CCCCNC(C)C)C(=O)N1CCC[C@H]1C(=O)N[C@H](C)C(N)=O [L13, Ac-DNal-DCpa-DPal-Ser-Aph(LHor)-DAph(Cbm)-Leu-ILys-Pro-DAla-NH2] (Ac-[d2Nal][dPhe(4-Cl)][d3Pal]S[Phe(4-NH2)](Dihydroorotyl(S))[dPhe(4-NHCONH2)]L[Lys(iPr)]P[dA]-NH2)
- safety margin with regard to histamine release: good safety margin
